Measured values reported in patent publication EP1745781A1, “Combination of pyrazoline type cannabinoid receptor antagonist and statin” (LABORATORIOS DEL DR. ESTEVE, S.A., priority 2005, dated 2007).

Assays:
Male NMRI mice [1] = assay: Mouse tetrad model: catalepsy; type: in vivo; conditions: for Agonistic effect C: Catalepsy: 5 mg/kg i.v.; for Antagonistic Effect C: Catalepsy: 5 mg/kg i.v. prior to Win 55212-2 in a dose of 1.25mg/kg i.v.
Source text: (§1) II. In-vivo bioassay system for determination of cannabinoid activity
(§2) Substances with affinity for cannabinoid receptors are known to produce a wide range of pharmacological effects. It is also known that intravenous administration of a substance with affinity for cannabinoid receptors in mice produces analgesia , hypothermia, sedation and catalepsy. Individually, none of these effects can be considered as proof that a tested substance has affinity for cannabinoid-receptors, since all of these effects are common for various classes of centrally active agents. However, substances, which show all of these effects, i.e. substances that are active in this so-called tetrad model are considered to have affinity for the cannabinoid receptors. It has further been shown that cannabinoid receptor antagonists are higly effective in blocking the effects of a cannabinoid agonist in the mouse tetrad model.
(§3) The tetrad model is described, for example, in the publication of A. C. Howlett et al, international Union of Pharmacology XXVII. Classification of Cannabinoid Receptors, Pharmacol Rev 54, 161-202 , 2002 and David R. Compton et al., "In-vivo Characterization of a Specific Cannabinoid Receptor Antagonist (SR141716A) :Inhibition of Tetrahydrocannbinol- induced Responses and Apparent Agonist Activity", J. Pharmacol. Exp. Ther. 277 , 2, 586-594, 1996. […]
(§4) Before testing in the behavioral procedures given below, mice are acclimatized to the experimental setting. Pre-Treatment control values are determined for analgesia hot plate latency (in seconds), rectal temperature, sedation and catalepsy.
(§5) In order to determine the agonistic activty of the substance to be tested, the mice are injected intravenously with the substance to be tested or the vehicle alone. 15 minutes after injection, latency in hot plate analgesia is measured. Rectal temperature, sedation and catalepsy are measured 20 minutes after injection.
(§6) In order to determine the antagonistic activity the identical procedure is used as for the determination of the agonistic effects, but with the difference that the substance to be evaluated for its antagonistic activity is injectected 5 minutes before the intravenous injection of 1.25 mg/kg Win-55,212 a known cannabinoid-receptor agonist.
Catalepsy is determined according to the method described in Alpermann H. G. et al. "Pharmacological effets of Hoe 249: A new potential antidepressant", Drugs Dev. […]
The cataleptic effect of the substance to be tested is evaluated according to the duration of catalepsy, whereby the animals are placed head downwards with their kinlegs upon the top of the wooden block. […]
The percentage of catalepsy is determined according ot the following formula: %Catalepsy = arithmetic mean/6 × 100 [formula]

Male NMRI mice [2] = assay: Mouse tetrad model: hypothermia; type: in vivo; conditions: for Agonistic effect B: Hypothermia: 5 mg/kg i.v.; for Antagonistic Effect B: Hypothermia: 5 mg/kg i.v. prior to Win 55212-2 in a dose of 1.25mg/kg i.v.
Source text: as §1, §2, §3, §4, §5, §6
Hypothermia is determined according to the method described in David R. Compton et al. "In-vivo Characterization of a Specific Cannabinoid Receptor Antagonist (SR141716A) Inhibition of Tetrahydrocannbinol- induced Responses and Apparent Agonist Activity", J. Pharmacol Exp Ther. 277 , 2, 586-594, 1996. […]
The base-line rectal temperatures are determined with a thermometer (Yello Springs Instruments Co., Panlabs) and a thermistor probe inserted to 25mm before the administration of the substance to be tested. […]

CB2-Receptor = target: T1, CB2-Receptor (Homo sapiens, UniProt P34972); assay: In-vitro determination of affinity to CB2 receptor (radioligand [^3H]-CP55940); type: binding
T1 construct: purchased Receptor Biology, Inc
Procedure: (§7) I. In-vitro determination of affinity to CB1/CB2-Receptors
(§8) The in-vitro determination of the affinity of the substituted pyrazoline compounds to CB1/CB2-Rezeptors is carried out as described in the publication of Ruth A. Ross, Heather C. Brockie et al., "Agonist-inverse agonist characterization at CB1 and CB2 cannabinoid receptors of L-759633. L759656 and AM630", British Journal of Pharmacology, 126, 665-672, (1999), whereby the transfected human CB1 and CB2 receptors of Receptor Biology, Inc. are used. The radioligand used for both receptors is [^3H]-CP55940. The respective parts of the description is hereby incorporated by reference and forms part of the present disclosure.

Male NMRI mice [3] = assay: Mouse tetrad model: sedation and ataxia; type: in vivo; conditions: for Agonistic effect D: Sedation: 5 mg/kg i.v.; for Antagonistic Effect D: Sedation: 5 mg/kg i.v. prior to Win 55212-2 in a dose of 1.25mg/kg i.v.
Source text: as §1, §2
(§9) The tetrad model is described, for example, in the publication of A. C. Howlett et al, international Union of Pharmacology XXVII. Classification of Cannabinoid Receptors, Pharmacol Rev 54, 161-202 , 2002 and David R. Compton et al., "In-vivo Characterization of a Specific Cannabinoid Receptor Antagonist (SR141716A) :Inhibition of Tetrahydrocannbinol- induced Responses and Apparent Agonist Activity", J. Pharmacol. Exp. Ther. 277 , 2, 586-594, 1996. The corresponding parts of the description are hereby incorporated by reference.
Male NMRI mice with a weight of 20-30 g (Harlan, Barcelona, Spain) are used in all of the following experiments.
as §4, §5, §6
Determination of sedation and ataxia
Sedation and ataxia is determined according to the method described in Desmet L. K. C. et al. "Anticonvulsive properties of Cinarizine and Flunarizine in Rats and Mice", Arzneim. -Forsch. (Frug Res) 25, 9, 1975. […]
The percentage of sedation is determined according to the formula: %of sedation = arithmetic mean/3 × 100 [formula]

Male NMRI mice [4] = assay: Mouse tetrad model: hot plate analgesia; type: in vivo; conditions: for Agonistic effect A: Hot-Plate test: 5 mg/kg i.v.; for Antagonistic Effect A: Hot-Plate test: 5 mg/kg i.v. prior to Win 55212-2 in a dose of 1.25mg/kg i.v.
Source text: as §1, §2
as §9, with “reference. […]” for “reference.”
as §4, §5, §6
The hot plate analgesia is determined according to the method described in Woolfe D. et al. "The evaluation of analgesic action of pethidine hydrochloride (Demerol)", J. Pharmacol. Exp. Ther. 80, 300-307,1944. […]
The mice are placed on a hot plate (Harvard Analgesimeter) at 55 ± 0.5 °C until they show a painful sensation by licking their paws or jumping and the time for these sensations to occur is recorded. This reading is considered the basal value (B). […]

CB1-Receptor = target: T2, CB1-Receptor (Homo sapiens, UniProt P21554); assay: In-vitro determination of affinity to CB1 receptor (radioligand [^3H]-CP55940); type: binding
T2 construct: purchased Receptor Biology, Inc
Procedure: as §7, §8

T1 sequence (P34972 whole entry): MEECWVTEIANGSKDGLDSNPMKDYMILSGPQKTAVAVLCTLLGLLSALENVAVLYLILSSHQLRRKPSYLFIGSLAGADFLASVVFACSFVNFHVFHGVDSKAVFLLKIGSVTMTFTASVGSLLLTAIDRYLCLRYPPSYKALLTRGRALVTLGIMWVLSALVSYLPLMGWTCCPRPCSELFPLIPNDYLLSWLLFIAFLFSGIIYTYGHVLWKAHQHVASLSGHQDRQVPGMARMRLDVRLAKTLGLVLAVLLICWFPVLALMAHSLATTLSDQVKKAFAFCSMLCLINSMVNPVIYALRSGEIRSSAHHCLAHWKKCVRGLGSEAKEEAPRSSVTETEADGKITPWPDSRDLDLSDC
T2 sequence (P21554 whole entry): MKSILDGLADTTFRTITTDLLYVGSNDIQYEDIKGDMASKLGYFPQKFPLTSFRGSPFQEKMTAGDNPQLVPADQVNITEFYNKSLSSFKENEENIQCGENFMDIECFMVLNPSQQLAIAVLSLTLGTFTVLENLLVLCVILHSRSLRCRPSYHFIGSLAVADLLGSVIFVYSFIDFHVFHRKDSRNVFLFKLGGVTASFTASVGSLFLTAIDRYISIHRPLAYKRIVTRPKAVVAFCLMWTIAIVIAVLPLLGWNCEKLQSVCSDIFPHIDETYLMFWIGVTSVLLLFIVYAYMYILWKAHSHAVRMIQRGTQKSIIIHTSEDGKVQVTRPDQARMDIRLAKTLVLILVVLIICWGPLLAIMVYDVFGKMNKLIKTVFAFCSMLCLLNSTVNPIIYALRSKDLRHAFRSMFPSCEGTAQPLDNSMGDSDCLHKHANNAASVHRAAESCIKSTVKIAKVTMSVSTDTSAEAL

Row | SMILES | Agonistic effect C: Catalepsy (Male NMRI mice [1]) | Antagonistic Effect C: Catalepsy (Male NMRI mice [1]) | Agonistic effect B: Hypothermia (Male NMRI mice [2]) | Antagonistic Effect B: Hypothermia (Male NMRI mice [2]) | Ki (CB2-Receptor) | Agonistic effect D: Sedation (Male NMRI mice [3]) | Antagonistic Effect D: Sedation (Male NMRI mice [3]) | Agonistic effect A: Hot-Plate test (Male NMRI mice [4]) | Antagonistic Effect A: Hot-Plate test (Male NMRI mice [4]) | Ki (CB1-Receptor)
1 | O=C(C1=NN(c2ccc(Cl)cc2Cl)C(c2ccc(Cl)cc2)C1)N1CCCCC1 (stereo not shown) [Example 5, [5-(4-Chloro-phenyl)-1-(2,4-dichloro-phenyl)-4,5-dihydro-1H-pyrazol-3-yl]-piperidin-1-yl-methanone] | 0 | 20 | 50 | 40 | ~1000 nM | 0 | 20 | 0 | 50 | –
2 | O=C(NN1CCCCC1)C1=NN(c2ccc(Cl)cc2Cl)C(c2ccc(Cl)cc2)C1 (stereo not shown) [Example 1, N-piperidinyl-5-(4-chlorophenyl)-1-(2,4-dichlorophenyl)-4,5-dihydro-1H-pyrazole-3-carboxamide] | 0 | 100 | 0 | 100 | > 1000 nM | 0 | 100 | 0 | 74 | < 25 nM
